Data: patent publication US11840686B2, “Modulation of prekallikrein (PKK) expression” (Ionis Pharmaceuticals, Inc., priority 2013, dated 2023)
Strand notation (5' to 3'): a small letter for the sugar, then the base; units joined by * are phosphorothioate-linked, units joined directly phosphodiester-linked; [ ] holds rarer units or linkages, { } end groups; capitals alone tell only the bases. e = 2'-O-(2-methoxyethyl) (MOE); [5mC] = 5-methylcytosine; d = 2'-deoxy (DNA)

Key:
[1] = tested on: human PKK mRNA; assay: Antisense inhibition of human PKK mRNA in HepaRG cells, 5,000 nM (Example 2); assay type: cell-based
How it was run: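 Percent inhibition of PKK mRNA is reported relative to untreated cells, after adjustment for total RNA by RIBOGREEN. Gapmers of 16–20 nucleosides with 2′-MOE wings were delivered at 5,000 nM by electroporation into HepaRG cells and left for roughly 24 hours before RNA isolation.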

[2] = tested on: human PKK mRNA; assay: Dose-dependent antisense inhibition of human PKK in HepaRG cells, 0.19-5.00 uM (Example 5); assay type: cell-based
How it was run: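 HepaRG cells (20,000/well) were electroporated with antisense oligonucleotide at 0.19, 0.56, 1.67 and 5.00 μM and treated for about 16 hours. PKK mRNA was quantified by qRT-PCR with primer probe set RTS3454, normalised to RIBOGREEN total RNA, and IC50 was derived per oligonucleotide.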

[3] = HepaRG cells, electroporation with 5,000 nM antisense oligonucleotide, approximately 24 hours, PKK mRNA by RT-PCR (RTS3454), relative to untreated control cells, Table 5 experiment
[4] = HepaRG cells, electroporation, approximately 16 hours, Table 40
[5] = 4 point dose response, HepaRG cells, Table 40
[6] = Table 34, HepaRG, electroporation, ~16 h
[7] = Table 34, PKK mRNA, HepaRG, electroporation, ~16 h
[8] = HepaRG cells, electroporation, approximately 16 hours, Table 35
[9] = HepaRG cells, electroporation, approximately 16 hours, Table 38
[10] = Table 8, HepaRG cells, electroporation with 5,000 nM antisense oligonucleotide, approx. 24 hours, PKK mRNA by RT-PCR (RTS3454), relative to untreated control cells
[11] = HepaRG cells, electroporation, approximately 16 hours, Table 36

547277 (antisense e[5mC]*eA*e[5mC]*eA*eA*dT*dT*dG*d[5mC]*dT*dT*d[5mC]*dT*dT*dG*eG*eA*eG*eG*eT) [compound 547277]
% inhibition [1, 3]: 75% | percent inhibition of PKK at 0.19 μM [2, 4]: 2% | percent inhibition of PKK at 0.56 μM [2, 4]: 32% | percent inhibition of PKK at 1.67 μM [2, 4]: 34% | percent inhibition of PKK at 5.00 μM [2, 4]: 62% | IC50 [2, 5]: 2800 nM

546158 (e[5mC]*eT*eT*eG*eG*dG*dT*dG*dG*dA*dA*dT*dG*dT*dG*e[5mC]*eA*e[5mC]*e[5mC]*eT; antisense) [compound 546158]
% inhibition [1, 3]: 95% | percent inhibition of PKK at 0.19 μM [2, 6]: 5% | percent inhibition of PKK at 0.56 μM [2, 6]: 45% | percent inhibition of PKK at 1.67 μM [2, 6]: 79% | percent inhibition of PKK at 5.00 μM [2, 6]: 83% | IC50 [2, 7]: 700 nM

546849 (eA*eT*e[5mC]*eA*e[5mC]*dT*dG*dT*d[5mC]*d[5mC]*dT*dA*dT*dA*dT*e[5mC]*eA*e[5mC]*eT*eG; antisense) [compound 546849]
% inhibition ([1]; human PKK mRNA in HepaRG cells, 5-10-5 gapmers, Table 14): 93% | percent inhibition of PKK at 0.19 μM [2, 8]: 23% | percent inhibition of PKK at 0.56 μM [2, 8]: 35% | percent inhibition of PKK at 1.67 μM [2, 8]: 83% | percent inhibition of PKK at 5.00 μM [2, 8]: 91% | IC50 ([2]; 4 point dose response, HepaRG cells, Table 35): 700 nM | percent inhibition of PKK mRNA, 0.19 μM ([2]; HepaRG cells, 0.19 μM antisense oligonucleotide): 13% | percent inhibition of PKK mRNA, 0.56 μM ([2]; HepaRG cells, 0.56 μM antisense oligonucleotide): 45% | percent inhibition of PKK mRNA, 1.67 μM ([2]; HepaRG cells, 1.67 μM antisense oligonucleotide): 84% | percent inhibition of PKK mRNA, 5.00 μM ([2]; HepaRG cells, 5.00 μM antisense oligonucleotide): 98% | IC50 ([2]; HepaRG cells, 0.19-5.00 μM): 700 nM

547337 (antisense eA*eA*e[5mC]*eT*e[5mC]*d[5mC]*dT*dT*dT*dA*dT*dA*dA*dA*dT*eG*eT*e[5mC]*eT*e[5mC]) [compound 547337]
% inhibition ([1]; HepaRG cells, electroporation with 5,000 nM antisense oligonucleotide, approximately 24 hours, PKK mRNA by RT-PCR (RTS3454), relative to untreated control cells, Table 6 experiment): 84% | percent inhibition of PKK at 0.19 μM [2, 9]: 23% | percent inhibition of PKK at 0.56 μM [2, 9]: 41% | percent inhibition of PKK at 1.67 μM [2, 9]: 55% | percent inhibition of PKK at 5.00 μM [2, 9]: 79% | IC50 ([2]; 4 point dose response, HepaRG cells, Table 38): 1000 nM

546291 (antisense e[5mC]*eA*eG*eG*eG*d[5mC]*d[5mC]*dA*d[5mC]*dT*d[5mC]*dT*d[5mC]*d[5mC]*d[5mC]*e[5mC]*eA*eA*eG*eA) [compound 546291]
% inhibition [1, 10]: 81% | percent inhibition of PKK at 0.19 μM [2, 4]: 22% | percent inhibition of PKK at 0.56 μM [2, 4]: 32% | percent inhibition of PKK at 1.67 μM [2, 4]: 34% | percent inhibition of PKK at 5.00 μM [2, 4]: 72% | IC50 [2, 5]: 2000 nM

547423 (e[5mC]*e[5mC]*e[5mC]*eT*eT*dG*dT*dG*dT*d[5mC]*d[5mC]*d[5mC]*dA*dT*dA*e[5mC]*eG*e[5mC]*eA*eA; antisense) [compound 547423]
% inhibition [1, 10]: 95% | percent inhibition of PKK at 0.19 0μM ([2]; 0.19 0μM, HepaRG cells, electroporation, approximately 16 hours, Table 41): 78% | percent inhibition of PKK at 0.56 0μM ([2]; 0.56 0μM, HepaRG cells, electroporation, approximately 16 hours, Table 41): 92% | IC50 ([2]; 4 point dose response, HepaRG cells, Table 41): < 200 nM | percent inhibition of PKK at 0.19 μM [2, 6]: 37% | percent inhibition of PKK at 0.56 μM [2, 6]: 50% | percent inhibition of PKK at 1.67 μM [2, 6]: 92% | percent inhibition of PKK at 5.00 μM [2, 6]: 90% | IC50 [2, 7]: 400 nM

546903 (e[5mC]*e[5mC]*eT*eA*eT*dA*dT*d[5mC]*dA*d[5mC]*dT*dG*dT*dA*d[5mC]*e[5mC]*eT*eA*eT*eA; antisense) [compound 546903]
% inhibition ([1]; human PKK mRNA, HepaRG cells, 5-10-5 motif oligonucleotides targeting SEQ ID NO: 1 and 10): 91% | percent inhibition of PKK at 0.19 μM [2, 11]: 15% | percent inhibition of PKK at 0.56 μM [2, 11]: 37% | percent inhibition of PKK at 1.67 μM [2, 11]: 74% | percent inhibition of PKK at 5.00 μM [2, 11]: 98% | IC50 ([2]; 4 point dose response, HepaRG cells, Table 36): 800 nM
